# Measurements taken from US20250339426A1, “GCN2 MODULATOR FOR TREATING CANCER” (HIBERCELL, INC., priority 2022, published 2025).
# System: ASNS, PSAT1, PHGDH, PUMA, S100A8/A9 in KG-1 tumors
# Experiment: Tumor IHC, KG-1 tumors
# Format: in vivo, NOD SCID mice
# Protocol: Immunohistochemical analysis was carried out on tumors that were collected at the end of the study described in Example 6. Formalin-fixed paraffin-embedded samples were sectioned at 5 μm thickness and mounted on Superfrost Plus microscope slides (Fisher Scientific). All immunohistochemical (IHC) staining was performed on Bond Rx auto-stainer (Leica Biosystems) using the conventional TSA-amplified detection system. Primary antibodies used were as follows: a-ASNS (Cell Signaling Technology #92479), a-PUMA (Cell Signaling Technology #98672), a-PSAT1 (Proteintech #10501-1-AP), a-PHGDH (Proteintech #14719-1-AP), HIF-1a-Novus Biologicals NB 100-479, HIF-2a-Novus Biologicals NB100-122SS, and GLUT-1-EMB Biosciences 07-1401. TSA-conjugated Alexa488, Alexa 568 and Alexa647 fluorophores from Invitrogen (#B40953, #B40956, and #B40958) were used at 1:500 dilution. Slides were counterstained with DAPI and cover slipped using Mowiol anti-fade mounting media (Sigma #D2522).
# Slides were imaged with Aperio Versa 200 (Leica Biosystems) whole-slide scanner using 10×/0.32NA objective, and the data were analyzed using custom-written macros in ImageJ/FIJI (NIH). Briefly, 150 μm of outer edges of the tumor sections and necrotic regions (determined by lack of 4′,6-diamidino-2-phenylindole (DAPI) signal or presence of condensed DNA) were eliminated from the analysis. Gaussian-blurred DAPI channel was used to measure the area of the tumor tissue. Scans of immune-staining were processed to remove background, then total intensity value above appropriate threshold levels was measured and normalized to tissue area. All graphing and statistics (one-way ANOVA and pair-wise comparisons) were performed using Prism GraphPad.
# Slides were deparaffinized, rehydrated and heat mediated antigen retrieval was conducted with AR6 buffer (Akoya). Slides were blocked with Roche diagnostics antibody diluent (Fisher) and stained with primary antibodies for 1 hr at 110 rpm. After washing, horseradish peroxidase (HRP)-conjugated secondary antibodies were added for 10 mins at 110 rpm. After washing, OPAL detection dye (Akoya) was added for a static 10 min incubation. Antigen retrieval was performed post OPAL staining, followed by DAPI staining and slide covering. Multispectral images were captured on the Polaris imaging system (Akoya) and spectral unmixing, cell segmentation and phenotyping was performed using Inform Tissue Finder software (Akoya). Imaging data was converted into .csv files and imported into Flowjo for analysis of S100A8/A9 percent positive cells. Primary antibodies used were rabbit anti-human/mouse S100A8/A9 (Clone RM1038, Abcam ab288715, paired with Opal 570).
# [1] = end of study (day 27), highest induction at 1 and 3 mg/kg
compound,measurement,setting,value
"CNC(=O)c1ncn2cc(-c3c(F)ccc(NS(=O)(=O)c4cc(Cl)cnc4OC)c3F)ncc12 [HC-7366, 6-(3-((5-chloro-2-methoxypyridine)-3-sulfonamido)-2,6-difluorophenyl)-N-methylimidazo[1,5-a]pyrazine-1-carboxamide]",protein levels of S100A8/A9,"1 and 3 mg/kg doses, day 27",potently reduced
same,PUMA levels,day 27,not changed
same,ASNS by IHC,[1],potently induced
same,PHGDH by IHC,[1],potently induced
same,PSAT1 by IHC,[1],potently induced
